Experiments:
Acetylcholinesterase [1] = target: Acetylcholinesterase (Homo sapiens, UniProt P22303); experiment: Inhibitory concentration against acetylcholinesterase (AChE) from human erythrocytes
Cholinesterase = Cholinesterase (Homo sapiens, UniProt P06276); experiment: Inhibitory concentration against Butyrylcholinesterase (BuChE) from human serum
[2] = Ratio of inhibitory activity of ocmpound towards acetylcholinesterase from human erythrocytes over butyrylcholinesterase from human serum
Acetylcholinesterase [3] = target: Acetylcholinesterase (Torpedo californica, UniProt P04058)
Description: In vitro inhibition of Torpedo californica acetylcholinesterase.

Acetylcholinesterase [4] = target: T1, Acetylcholinesterase (Rattus norvegicus, UniProt P37136)
T1 sequence (P37136 whole entry): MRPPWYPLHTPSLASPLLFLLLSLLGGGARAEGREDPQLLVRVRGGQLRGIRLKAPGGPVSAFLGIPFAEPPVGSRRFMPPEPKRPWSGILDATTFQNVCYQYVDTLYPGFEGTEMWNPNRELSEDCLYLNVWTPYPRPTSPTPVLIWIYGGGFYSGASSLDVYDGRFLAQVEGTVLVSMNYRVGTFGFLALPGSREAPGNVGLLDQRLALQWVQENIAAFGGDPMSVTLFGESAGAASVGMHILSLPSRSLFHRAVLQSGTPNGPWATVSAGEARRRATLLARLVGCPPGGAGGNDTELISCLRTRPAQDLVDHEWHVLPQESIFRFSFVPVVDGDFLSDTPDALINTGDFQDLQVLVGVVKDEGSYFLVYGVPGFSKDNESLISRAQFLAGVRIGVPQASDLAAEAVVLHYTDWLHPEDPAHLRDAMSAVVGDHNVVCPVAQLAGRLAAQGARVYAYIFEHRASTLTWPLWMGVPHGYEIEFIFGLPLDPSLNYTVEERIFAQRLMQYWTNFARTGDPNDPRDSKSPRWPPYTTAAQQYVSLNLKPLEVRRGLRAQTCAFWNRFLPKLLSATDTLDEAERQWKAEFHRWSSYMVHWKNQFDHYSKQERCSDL
Description: In vitro inhibition of acetylcholinesterase in homogenized rat striatum.

Acetylcholinesterase (Torpedo californica, UniProt P04058), sequence (P04058 whole entry): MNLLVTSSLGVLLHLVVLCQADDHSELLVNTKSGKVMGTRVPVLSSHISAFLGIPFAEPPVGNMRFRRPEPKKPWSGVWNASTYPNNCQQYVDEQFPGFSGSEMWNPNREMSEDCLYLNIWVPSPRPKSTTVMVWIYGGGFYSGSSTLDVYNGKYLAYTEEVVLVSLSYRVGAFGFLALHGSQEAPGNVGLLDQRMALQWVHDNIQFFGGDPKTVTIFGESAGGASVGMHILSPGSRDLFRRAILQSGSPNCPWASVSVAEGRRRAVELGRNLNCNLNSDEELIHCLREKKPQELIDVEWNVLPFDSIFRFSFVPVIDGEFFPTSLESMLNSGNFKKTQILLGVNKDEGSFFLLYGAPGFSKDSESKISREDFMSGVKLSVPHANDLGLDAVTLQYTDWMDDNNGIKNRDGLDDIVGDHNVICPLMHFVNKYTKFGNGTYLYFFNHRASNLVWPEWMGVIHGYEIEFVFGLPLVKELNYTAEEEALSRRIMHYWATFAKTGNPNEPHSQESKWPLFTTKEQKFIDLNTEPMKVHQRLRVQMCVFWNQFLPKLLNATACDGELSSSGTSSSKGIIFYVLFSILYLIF
Cholinesterase, sequence (P06276 whole entry): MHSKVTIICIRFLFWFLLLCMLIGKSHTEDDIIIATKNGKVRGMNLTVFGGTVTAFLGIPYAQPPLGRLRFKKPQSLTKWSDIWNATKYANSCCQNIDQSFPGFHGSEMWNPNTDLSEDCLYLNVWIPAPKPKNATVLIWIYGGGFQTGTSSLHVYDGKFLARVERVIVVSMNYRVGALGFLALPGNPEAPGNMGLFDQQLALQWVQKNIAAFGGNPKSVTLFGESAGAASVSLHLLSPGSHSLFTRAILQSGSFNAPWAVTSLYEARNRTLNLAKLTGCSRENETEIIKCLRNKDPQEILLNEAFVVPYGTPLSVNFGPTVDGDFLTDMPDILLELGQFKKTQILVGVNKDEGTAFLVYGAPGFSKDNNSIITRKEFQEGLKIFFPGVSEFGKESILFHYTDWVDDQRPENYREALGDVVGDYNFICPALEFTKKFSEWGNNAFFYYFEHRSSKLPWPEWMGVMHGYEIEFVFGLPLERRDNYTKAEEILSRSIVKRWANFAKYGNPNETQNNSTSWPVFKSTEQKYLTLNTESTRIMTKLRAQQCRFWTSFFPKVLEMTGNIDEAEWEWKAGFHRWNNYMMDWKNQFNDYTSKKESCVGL
Acetylcholinesterase (Homo sapiens, UniProt P22303), sequence (P22303 whole entry): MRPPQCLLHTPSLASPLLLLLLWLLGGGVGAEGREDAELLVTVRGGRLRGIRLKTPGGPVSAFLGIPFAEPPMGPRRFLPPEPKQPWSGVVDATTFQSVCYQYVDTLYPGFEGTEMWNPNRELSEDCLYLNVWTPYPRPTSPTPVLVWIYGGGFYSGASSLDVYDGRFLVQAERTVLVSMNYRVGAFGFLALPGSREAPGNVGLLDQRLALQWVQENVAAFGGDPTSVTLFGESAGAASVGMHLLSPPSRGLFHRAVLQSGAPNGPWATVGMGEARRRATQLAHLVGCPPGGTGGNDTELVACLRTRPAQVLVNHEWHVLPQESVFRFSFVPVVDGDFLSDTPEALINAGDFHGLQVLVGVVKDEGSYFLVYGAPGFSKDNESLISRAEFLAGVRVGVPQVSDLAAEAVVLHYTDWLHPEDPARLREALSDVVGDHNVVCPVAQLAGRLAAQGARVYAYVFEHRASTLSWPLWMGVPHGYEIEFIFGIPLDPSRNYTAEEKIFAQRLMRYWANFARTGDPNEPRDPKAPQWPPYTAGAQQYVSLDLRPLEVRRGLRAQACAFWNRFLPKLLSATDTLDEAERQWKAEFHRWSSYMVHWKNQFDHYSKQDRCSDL

CN(CCCCCNc1ccc(-c2ccccc2)nn1)Cc1ccccc1
IC50 (Acetylcholinesterase [1]): 0.93 µM
IC50 (Cholinesterase): 0.34 µM
Ratio [2]: 0.36
IC50 (Acetylcholinesterase [3]): 0.74 µM

c1ccc(-c2ccc(NCCCCCN3CCc4ccccc4C3)nn2)cc1
IC50 (Acetylcholinesterase [1]): 47 µM
IC50 (Cholinesterase): 0.31 µM
Ratio [2]: 0.0066
IC50 (Acetylcholinesterase [3]): 10 µM

c1ccc(CN2CCC(CNc3ccc(-c4ccccc4)nn3)CC2)cc1
IC50 (Acetylcholinesterase [3]): 5.6 µM

c1ccc(-c2ccc(NCCCCN3CCc4ccccc4C3)nn2)cc1
IC50 (Acetylcholinesterase [3]): 15 µM

Cc1cc(-c2ccc3c(c2)OCO3)nnc1NCCN1CCCCC1
IC50 (Acetylcholinesterase [4]): 1 µM

c1ccc(-c2ccc(NCCN3CCOCC3)nn2)cc1
IC50 (Acetylcholinesterase [4]): > 1000 µM
IC50 (Acetylcholinesterase [3]): 800 µM

OCc1cc(-c2ccccc2)nnc1NCCN1CCOCC1
IC50 (Acetylcholinesterase [4]): 440 µM

c1ccc(-c2cnc(NCCN3CCCCC3)nn2)cc1
IC50 (Acetylcholinesterase [4]): 60 µM

c1ccc(CN2CCC(CCNc3ccc(-c4ccccc4)nn3)CC2)cc1
IC50 (Acetylcholinesterase [1]): 0.14 µM
IC50 (Cholinesterase): 0.7 µM
Ratio [2]: 5
IC50 (Acetylcholinesterase [3]): 0.12 µM

Nc1cc(-c2ccccc2)nnc1NCCN1CCOCC1
IC50 (Acetylcholinesterase [4]): 270 µM

CN(CCCNc1ccc(-c2ccccc2)nn1)Cc1ccccc1
IC50 (Acetylcholinesterase [3]): 13 µM

c1ccc(-c2nnc(NCCN3CCCCC3)s2)cc1
IC50 (Acetylcholinesterase [4]): 54 µM

CCN1CCCC1CNc1ccc(-c2ccccc2)nn1 (configuration not stated)
IC50 (Acetylcholinesterase [3]): 62 µM

c1ccc(-c2ncc(NCCN3CCCCC3)nn2)cc1
IC50 (Acetylcholinesterase [4]): 57 µM

CN(CCCCNc1ccc(-c2ccccc2)nn1)Cc1ccccc1
IC50 (Acetylcholinesterase [3]): 11 µM

c1ccc(-c2ccc(NCCN3CCc4ccccc4C3)nn2)cc1
IC50 (Acetylcholinesterase [3]): 83 µM

Cc1cc(-c2ccc(Cl)cc2)nnc1NCCN1CCOCC1
IC50 (Acetylcholinesterase [4]): 34 µM

c1ccc(-c2ccc(NCCN3CCCCC3)nc2)cc1
IC50 (Acetylcholinesterase [4]): 70 µM

c1ccc(-c2ccc(NCCCN3CCc4ccccc4C3)nn2)cc1
IC50 (Acetylcholinesterase [3]): 35 µM

c1ccc(-c2cnc(NCCN3CCCCC3)nc2)cc1
IC50 (Acetylcholinesterase [4]): > 100 µM

c1ccc(C2=NNC(NCCN3CCCCC3)=NC2)cc1
IC50 (Acetylcholinesterase [4]): 47 µM

FC(F)(F)c1cc(-c2ccccc2)nnc1NCCN1CCOCC1
IC50 (Acetylcholinesterase [4]): 740 µM

CN(CCNc1ccc(-c2ccccc2)nn1)Cc1ccccc1
IC50 (Acetylcholinesterase [3]): 170 µM

Cc1cc(-c2ccccc2)nnc1NCCN1CCOCC1
IC50 (Acetylcholinesterase [4]): 85 µM

c1ccc(-c2ccc(NCCCN3CCOCC3)nn2)cc1
IC50 (Acetylcholinesterase [3]): 410 µM

c1ccc(CN2CCC(Nc3ccc(-c4ccccc4)nn3)CC2)cc1
IC50 (Acetylcholinesterase [3]): 65 µM

c1ccc(-c2cc(-c3ccccc3)c(NCCN3CCOCC3)nn2)cc1
IC50 (Acetylcholinesterase [4]): 260 µM

N#Cc1cc(-c2ccccc2)nnc1NCCN1CCOCC1
IC50 (Acetylcholinesterase [4]): > 100 µM

c1ccc(-c2ccc(NCCN3CCCCC3)nn2)cc1
IC50 (Acetylcholinesterase [4]): 13 µM
IC50 (Acetylcholinesterase [3]): 71 µM

Cc1cc(-c2ccccc2)nnc1NCCN1CCCCC1
IC50 (Acetylcholinesterase [4]): 5.4 µM

Cc1cc(-c2ccc(Cl)cc2)nnc1NCCN1CCCCC1
IC50 (Acetylcholinesterase [4]): 1.3 µM
